“Also recorded” adds a separate entry of the source. Structures can show the parent of a compound that is named as a salt. Where two headings read alike, the source gives them in different places.
How the values were obtained:
[1] = test system: wild-type HIV-1 (HIV-1LAI) in MT-4 cells (permissive); assay: Antiviral activity assay: wild-type HIV-1 in permissive MT4 cells, reverse transcriptase activity in culture supernatants; type: cell-based; conditions: for viral replication (reverse transcriptase activity in supernatants): MT4 cells, HIV-1LAI, up to 50 μM, 15 days
[2] = test system: wild-type HIV-1 (HIV-1LAI) in H9 cells (non-permissive); assay: microbe, parasite or virus in culture; type: cell-based; conditions: for viral replication (reverse transcriptase activity in supernatants): HIV-1LAI, up to 50 μM, 15 days
[3] = test system: HA-tagged A3G and GFP-tagged Vif or ΔVif in 293FT cells; assay: Immunoblot of A3G and Vif levels in transfected 293FT cells; conditions: 293FT cells, 50 μM, 16 h
HSP90 = assay: ViTAP (Vif inhibitor Target Affinity Purification): streptavidin affinity purification of compound-bound proteins; type: binding; conditions: transfected 293FT cells, streptavidin affinity purification
[4] = test system: polyubiquitination of A3G and Vif; assay: Ubiquitination assay in 293FT cells; type: cell-based; conditions: 293FT cells expressing HA-A3G and GFP-Vif, 10 μM, ALLN
Description: Cells were incubated with or without 10 μM of IMA82, IMD55, or IMD64 for 16 h, and then with or without 10 μM of the calpain inhibitor ALLN for 4 h. The cells were washed once with PBS and lysed. Samples of 200 μg protein were immunoprecipitated by the addition of rat anti-HA (Roche) or mouse anti-GFP (Wako) antibodies (7 μg) and 50 μl protein G DYNABEADS® (Invitrogen) and rotated at RT for 2 h. The beads were washed three times with PBS containing 0.05% Tween 20 and boiled in 5×SDS sample buffer. The denatured proteins were resolved and electroblotted onto PVDF membranes. The membranes were probed with rabbit anti-ubiquitin, rabbit anti-HA, or rabbit anti-GFP antibodies, as described above.

[5] = Human immunodeficiency virus 1, MT4, Table 2, wild-type HIV-1, permissive MT4 cells, read-out: Antiviral activity (IC50 μM) MT4
[6] = Human immunodeficiency virus 1, MT4, wild-type HIV-1 (HIV-1LAI), MT4 cells (permissive), RT activity in culture supernatants, compounds 1 to 50 μM, read-out: Antiviral activity (IC50 μM) MT4 cells
[7] = Human immunodeficiency virus 1, H9, read-out: Antiviral activity (IC50 μM) H9, Table 2, wild-type HIV-1, non-permissive H9 cells
[8] = Human immunodeficiency virus 1, H9, read-out: Antiviral activity (IC50 μM) H9 Cells, Table 4, wild-type HIV-1, non-permissive H9 cells
[9] = Human immunodeficiency virus 1, H9, read-out: Antiviral activity (IC50 μM) H9 Cells, Table 7, wild-type HIV-1, non-permissive H9 cells
[10] = Human immunodeficiency virus 1, H9, read-out: Antiviral activity (IC50 μM) H9 cells, Table 5, wild-type HIV-1, non-permissive H9 cells
[11] = Human immunodeficiency virus 1, H9, read-out: Antiviral activity (IC50 μM) H9 cells, Table 8, wild-type HIV-1, non-permissive H9 cells
[12] = Human immunodeficiency virus 1, H9, read-out: Antiviral activity (IC50 μM) H9 cells, wild-type HIV-1 (HIV-1LAI), H9 cells (non-permissive), RT activity in culture supernatants, compounds 1 to 50 μM
[13] = Human immunodeficiency virus 1, H9, read-out: IC50, anti-HIV-1 activity, non-permissive H9 cells

Structure (SMILES)	melting point	IC50 [1, 5]	IC50 [1, 6]	IC50 [2, 7]	IC50 [2, 8]	IC50 [2, 9]	IC50 [2, 10]	IC50 [2, 11]	IC50 [2, 12]	IC50 [2, 13]	upregulation of A3G and downregulation of Vif (immunoblots, FIG. 16) [3]	fold more potent than the original lead molecule RN-18 ([2]; H9 cells, IC50 compared with RN-18)	viral replication (reverse transcriptase activity in supernatants) ([2]; H9 cells)	co-purification of HSP90 (90 kDa protein) with the compound (HSP90)	viral replication (reverse transcriptase activity in supernatants) [1]	A3G ubiquitination [4]	Vif ubiquitination [4]
COc1ccccc1-n1cc(-c2ccccc2S(=O)(=O)c2ccc(C(=O)O)cc2)nn1 (as salt: salt) [Compound 2gy, 2-Hydroxy-N,N,N-trimethylethanaminium 4-((2-(1-(2-methoxyphenyl)-1H-1,2,3-triazol-4-yl)phenyl)sulfonyl)benzoate]	93 °C																
COc1ccccc1-n1cc(-c2ccccc2Sc2ccc(C(F)(F)F)cc2)nn1 [Compound 2dx, 1-(2-Methoxyphenyl)-4-(2-((4-(trifluoromethyl)phenyl)thio)phenyl)-1H-1,2,3-triazole]		> 50 µM	> 50 µM	2.6 µM	2.6 µM	2.6 µM	2.6 µM	2.6 µM	2.6 µM	1 to 3 µM	same mechanism as of RN-18; also recorded: same mechanism as observed for RN-18 and 1d						
COc1ccccc1-n1cc(-c2ccccc2S(=O)(=O)c2ccc(N)cc2)nn1 [Compound 2ey, 4-((2-(1-(2-Methoxyphenyl)-1H-1,2,3-triazol-4-yl)phenyl)sulfonyl)aniline]		> 50 µM	> 50 µM	0.4 µM	0.4 µM	0.4 µM	0.4 µM	0.4 µM	0.4 µM	0.4 µM	same mechanism as of RN-18; also recorded: same mechanism as observed for RN-18 and 1d						
COc1ccc(OC)c(-n2cc(-c3ccccc3Sc3ccc([N+](=O)[O-])cc3)nn2)c1 [Compound 5ax, 1-(2,5-Dimethoxyphenyl)-4-(2-((4-nitrophenyl)thio)phenyl)-1H-1,2,3-triazole]		> 50 µM	> 50 µM	0.01 µM	0.01 µM	0.01 µM	0.01 µM	0.01 µM	0.01 µM	0.01 µM	same mechanism as of RN-18; also recorded: same mechanism as observed for RN-18 and 1d	about 1000 fold					
COc1ccc(OC)c(-n2cc(-c3ccccc3S(=O)(=O)c3ccc(N)cc3)nn2)c1 [Compound 5ey, 4-((2-(1-(2,5-Dimethoxyphenyl)-1H-1,2,3-triazol-4-yl)phenyl)sulfonyl)aniline]		> 50 µM	> 50 µM	0.6 µM	0.6 µM	0.6 µM	0.6 µM	0.6 µM	0.6 µM		same mechanism as of RN-18; also recorded: same mechanism as observed for RN-18 and 1d						
COc1cccc(F)c1-n1cc(-c2ccccc2S(=O)(=O)c2ccc(C(F)(F)F)cc2)nn1 [Compound 7dy, 1-(2-Fluoro-6-methoxyphenyl)-4-(2-((4-(trifluoromethyl)phenyl)sulfonyl)phenyl)-1H-1,2,3-triazole]		> 50 µM	> 50 µM	> 50 µM			> 50 µM	> 50 µM	> 50 µM								
COc1cccc(F)c1-n1cc(-c2ccccc2Sc2ccc(N)cc2)nn1 [Compound 7ex, 4-((2-(1-(2-Fluoro-6-methoxyphenyl)-1H-1,2,3-triazol-4-yl)phenyl)thio)aniline]		> 50 µM	> 50 µM	> 50 µM			> 50 µM	> 50 µM	> 50 µM								
COc1cccc(F)c1-n1cc(-c2ccccc2S(=O)(=O)c2ccc(N)cc2)nn1 [Compound 7ey, 4-((2-(1-(2-Fluoro-6-methoxyphenyl)-1H-1,2,3-triazol-4-yl)phenyl)sulfonyl)aniline]		> 50 µM	> 50 µM	15 µM	15 µM	15 µM	15 µM	15 µM	15 µM								
COc1cccc(F)c1-n1cc(-c2ccccc2Sc2ccc(C(=O)O)cc2)nn1 [Compound 7fx, 4-((2-(1-(2-Fluoro-6-methoxyphenyl)-1H-1,2,3-triazol-4-yl)phenyl)thio)benzoic Acid]		> 50 µM	> 50 µM	4.9 µM	4.9 µM	4.9 µM	4.9 µM	4.9 µM	4.9 µM								
COc1cccc(F)c1-n1cc(-c2ccccc2S(=O)(=O)c2ccc(C(=O)O)cc2)nn1 [Compound 7fy, 4-((2-(1-(2-Fluoro-6-methoxyphenyl)-1H-1,2,3-triazol-4-yl)phenyl)sulfonyl)benzoic Acid]		> 50 µM	> 50 µM	> 50 µM			> 50 µM	> 50 µM	> 50 µM								
COc1cc(C(=O)NCCOCCOCCOCCNC(=O)CCCCC2SCC3NC(=O)NC32)ccc1NC(=O)c1ccccc1Sc1ccc([N+](=O)[O-])cc1 (stereo not shown) [IMD40, 3-methoxy-4-(2-((4-nitrophenyl)thio)benzamido)-N-(13-oxo-17-(2-oxohexahydro-1H-thieno[3,4-d]imidazol-4-yl)-3,6,9-trioxa-12-azaheptadecyl)benzamide]													dose-dependently inhibited viral replication	binds HSP90; also recorded: purified a specific 90 kDa protein			
COc1ccccc1C(=O)NCCOCCOCCOCCNC(=O)CCCCC1SCC2NC(=O)NC21 (stereo not shown) [IMD41, 2-methoxy-N-(13-oxo-17-(2-oxohexahydro-1H-thieno[3,4-d]imidazol-4-yl)-3,6,9-trioxa-12-azaheptadecyl)benzamide]													no effect on viral replication	did not co-purify	no effect on viral replication		
COc1cc(C(=O)NCCOCCOCCOCCNC(=O)CCCCC2SCC3NC(=O)NC32)ccc1NC(=O)c1ccc(N=[N+]=[N-])cc1Sc1ccc([N+](=O)[O-])cc1 (stereo not shown) [IMD55, 4-azido-N-(2-methoxy-4-((13-oxo-17-(2-oxohexahydro-1H-thieno[3,4-d]imidazol-4-yl)-3,6,9-trioxa-12-azaheptadecyl)carbamoyl)phenyl)-2-((4-nitrophenyl)thio)benzamide]													dose-dependently inhibited viral replication	co-purified; also recorded: specifically co-purify		not observed	ubiquitinated
[N-]=[N+]=Nc1ccc(C(=O)NCCOCCOCCOCCNC(=O)CCCCC2SCC3NC(=O)NC32)cc1 (stereo not shown) [IMD64, 4-Azido-N-(13-oxo-17-(2-oxohexahydro-1H-thieno[3,4-d]imidazol-4-yl)-3,6,9-trioxa-12-azaheptadecyl)benzamide]													no effect on viral replication	did not associate	no effect on viral replication	extensively ubiquitinated	

Reference: patent US11136301B2, “Broad spectrum antiviral compounds and uses thereof” (The Regents Of The University Of California, priority 2015, dated 2021)
